In patent EP1401467B3, “ALPHA-FETOPROTEIN PEPTIDES AND USES THEREOF” (Albany Medical College, priority 2001, dated 2003):
“Also recorded” adds a separate entry of the source. Each block holds one molecule with its values, some of them ahead of it. Square brackets hold non-standard residues; d marks the D form. Peptide text beside a SMILES is read from it. Hyp = O=C(O)[C@@H]1C[C@@H](O)CN1

Tests used:
[1] = test system: T47D human breast cancer xenografts; experiment: Human breast cancer xenograft assay, T47D; type: in vivo; details: tamoxifen
[2] = test system: MCF-7 human breast cancer xenografts; details: earlier study (Bennett et al. 1998); cited from earlier work
[3] = test system: MDA-MB-231 human breast cancer xenografts; experiment: Human breast cancer xenograft assay, MDA-MB-231; type: in vivo; details: tamoxifen 50 µg per mouse i.p. once a day
[4] = test system: MCF-7/Tam human breast cancer xenografts; experiment: Human breast cancer xenograft assay, tamoxifen-resistant MCF-7 subline; type: in vivo; details: tamoxifen 50 µg per mouse i.p. once a day; E2 implant; day 30
Method: Peptide or vehicle control was injected i.p. into immature female Swiss mice. One hour later 0.5 µg of E2 or vehicle control was injected i.p. into these mice. Twenty-two hours later, uteri were dissected and weighed. Percent inhibition of E2-stimulated growth of uterus by peptide was calculated as described in Materials and Methods. There were five to eight replicate mice per treatment group. (Figure 1a) Peptide dose-response. […] Peptide, SEQ ID NO:2: […], was fractionated using a Waters SW 200 gel-filtration column using phosphate buffered saline pH 7.4 as mobil phase. Fractions which had significant UV absorbance at 230 nm were collected at twenty second intervals. […] Tumor volumes in each mouse were measured at the time of tumor implantation and at 10-day intervals thereafter during survival laparotomies. […] E2-complex with receptor in the presence of different concentrations of test agent is expressed as a percentage of the amount of complex formed in the absence of test agent; • Figures 9a and 9b illustrate the effect of AFP-derived peptide on growth of estrogen-receptor-positive MCF-7 and MCF-7/Tam.human breast cancer xenografts. […] Tumor volumes in each mouse were measured at the time of tumor implantation, again at day 15 after tumor implantation during survival laparotomy and again at day 30 after tumor implantation during necropsy. […]

[5] = test system: MCF-7 human breast cancer xenografts; experiment: Human breast cancer xenograft assay, MCF-7; type: in vivo; details: E2 implant, 30-day observation
Method: Peptide or vehicle control was injected i.p. into immature female Swiss mice. One hour later 0.5 µg of E2 or vehicle control was injected i.p. into these mice. Twenty-two hours later, uteri were dissected and weighed. Percent inhibition of E2-stimulated growth of uterus by peptide was calculated as described in Materials and Methods. There were five to eight replicate mice per treatment group. (Figure 1a) Peptide dose-response. […] Peptide, SEQ ID NO:2: […], was fractionated using a Waters SW 200 gel-filtration column using phosphate buffered saline pH 7.4 as mobil phase. Fractions which had significant UV absorbance at 230 nm were collected at twenty second intervals. The first fraction (Frac I), the last fraction (Frac III), and the starting material (UnFrac) were all tested in the immature mouse uterine growth assay as described in Figures 1a and 1b. […] (Figure 3a) dose-response. […] (Figure 4a) dose-response. […] There were five to eight replicate mice per treatment group. Estrogen was provided via a slow release pellet implanted subcutaneously. Peptide was given twice a day i.p. at a dose of 1 µg per mouse. Tumor volumes in each mouse were measured at the time of tumor implantation and at 10-day intervals thereafter during survival laparotomies. […] (Figure 6a) dose-response. […] Experimental protocol is described in legend to Figure 5 and Materials and Methods. […] Rabbit uterine cytosol was used as a source of estrogen receptor. […] E2-complex with receptor in the presence of different concentrations of test agent is expressed as a percentage of the amount of complex formed in the absence of test agent; • Figures 9a and 9b illustrate the effect of AFP-derived peptide on growth of estrogen-receptor-positive MCF-7 and MCF-7/Tam.human breast cancer xenografts. […] Tumor volumes in each mouse were measured at the time of tumor implantation, again at day 15 after tumor implantation during survival laparotomy and again at day 30 after tumor implantation during necropsy. […]

estrogen receptor = molecular target: T1, estrogen receptor (Oryctolagus cuniculus, UniProt G1SML6); details: at a concentration of 100 nM; rabbit uterine cytosol
T1 sequence (G1SML6 1-598): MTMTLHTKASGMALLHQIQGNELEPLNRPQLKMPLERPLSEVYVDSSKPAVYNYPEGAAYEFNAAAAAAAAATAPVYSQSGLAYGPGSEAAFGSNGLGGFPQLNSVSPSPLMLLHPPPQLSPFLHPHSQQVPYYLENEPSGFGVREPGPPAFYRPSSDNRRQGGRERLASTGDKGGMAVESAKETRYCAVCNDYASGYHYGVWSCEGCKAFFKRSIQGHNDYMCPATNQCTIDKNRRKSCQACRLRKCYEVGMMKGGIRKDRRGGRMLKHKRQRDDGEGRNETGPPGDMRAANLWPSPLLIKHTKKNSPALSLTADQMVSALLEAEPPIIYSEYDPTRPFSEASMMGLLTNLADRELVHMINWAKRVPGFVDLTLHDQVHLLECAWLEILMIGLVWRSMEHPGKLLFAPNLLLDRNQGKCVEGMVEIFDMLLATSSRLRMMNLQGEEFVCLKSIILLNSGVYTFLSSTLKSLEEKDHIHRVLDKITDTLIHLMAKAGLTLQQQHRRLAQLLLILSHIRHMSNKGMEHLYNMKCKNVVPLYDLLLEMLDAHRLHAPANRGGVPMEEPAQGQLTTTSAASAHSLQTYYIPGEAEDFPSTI
Method: (§1) Peptide or vehicle control was injected i.p. into immature female Swiss mice. One hour later 0.5 µg of E2 or vehicle control was injected i.p. into these mice. Twenty-two hours later, uteri were dissected and weighed. Percent inhibition of E2-stimulated growth of uterus by peptide was calculated as described in Materials and Methods. There were five to eight replicate mice per treatment group. (Figure 1a) Peptide dose-response. […] Peptide, SEQ ID NO:2: […], was fractionated using a Waters SW 200 gel-filtration column using phosphate buffered saline pH 7.4 as mobil phase. Fractions which had significant UV absorbance at 230 nm were collected at twenty second intervals. The first fraction (Frac I), the last fraction (Frac III), and the starting material (UnFrac) were all tested in the immature mouse uterine growth assay as described in Figures 1a and 1b. […] (Figure 3a) dose-response. […] (Figure 4a) dose-response. […] There were five to eight replicate mice per treatment group. Estrogen was provided via a slow release pellet implanted subcutaneously. Peptide was given twice a day i.p. at a dose of 1 µg per mouse. Tumor volumes in each mouse were measured at the time of tumor implantation and at 10-day intervals thereafter during survival laparotomies. […] (Figure 6a) dose-response. […] Experimental protocol is described in legend to Figure 5 and Materials and Methods. […] Rabbit uterine cytosol was used as a source of estrogen receptor. All incubations were performed in triplicate, each containing 100 µl of cytosol, 20 µl of 10 nM 6,7-^3Hestradiol (50 Ci/mmol), and 80 µl of test agent at the final concentrations indicated on the abscissa. Details of the assay are described in Materials and Methods. • Concentration of [^3H] E2-complex with receptor in the presence of different concentrations of test agent is expressed as a percentage of the amount of complex formed in the absence of test agent; • Figures 9a and 9b illustrate the effect of AFP-derived peptide on growth of estrogen-receptor-positive MCF-7 and MCF-7/Tam.human breast cancer xenografts. Tumors were implanted as described in Materials and Methods. […] Tumor volumes in each mouse were measured at the time of tumor implantation, again at day 15 after tumor implantation during survival laparotomy and again at day 30 after tumor implantation during necropsy. There was a minimum of 5 mice per group. (Figure 9a) MCF-7 tumors. […] See legend to Figures 9a and 9b for experimental protocol. […] See legend to Figures 9a and 9b for experimental protocol. […] Rabbit uterine cytosol was used as a source of estrogen receptor. All incubations were performed in triplicate, each containing 100 µl of cytosol, 20 µl of 10 nM 6,7-^3H estradiol (50 Ci/mmol), and 80 µl of test agent at the final concentrations indicated on the abscissa. Concentration of [^3H] […] The assay procedure is described in the Materials and Methods.

[6] = mouse, in vivo
[7] = test system: E2-stimulated growth of immature mouse uterus; details: for dose of maximal inhibitory activity on estrogen-stimulated growth of immature mouse uterus: i.p., dose-response
Method: as §1

[8] = Shelf-life / storage studies of lyophilized peptide, read out in the immature mouse uterine growth assay; type: physicochemical; details: for shelf-life: storage in the lyophilized state at -20°C, activity tested in immature mouse uterine growth assay
Method: Peptide or vehicle control was injected i.p. into immature female Swiss mice. One hour later 0.5 µg of E2 or vehicle control was injected i.p. into these mice. Twenty-two hours later, uteri were dissected and weighed. Percent inhibition of E2-stimulated growth of uterus by peptide was calculated as described in Materials and Methods. There were five to eight replicate mice per treatment group. (Figure 1a) Peptide dose-response. […] Peptide, SEQ ID NO:2: […], was fractionated using a Waters SW 200 gel-filtration column using phosphate buffered saline pH 7.4 as mobil phase. Fractions which had significant UV absorbance at 230 nm were collected at twenty second intervals. The first fraction (Frac I), the last fraction (Frac III), and the starting material (UnFrac) were all tested in the immature mouse uterine growth assay as described in Figures 1a and 1b. […] (Figure 3a) dose-response. […] (Figure 4a) dose-response. […] There were five to eight replicate mice per treatment group. Estrogen was provided via a slow release pellet implanted subcutaneously. Peptide was given twice a day i.p. at a dose of 1 µg per mouse. Tumor volumes in each mouse were measured at the time of tumor implantation and at 10-day intervals thereafter during survival laparotomies. […] (Figure 6a) dose-response. […] Experimental protocol is described in legend to Figure 5 and Materials and Methods. […] Rabbit uterine cytosol was used as a source of estrogen receptor. All incubations were performed in triplicate, each containing 100 µl of cytosol, 20 µl of 10 nM 6,7-^3Hestradiol (50 Ci/mmol), and 80 µl of test agent at the final concentrations indicated on the abscissa. Details of the assay are described in Materials and Methods. • Concentration of [^3H] E2-complex with receptor in the presence of different concentrations of test agent is expressed as a percentage of the amount of complex formed in the absence of test agent; • Figures 9a and 9b illustrate the effect of AFP-derived peptide on growth of estrogen-receptor-positive MCF-7 and MCF-7/Tam.human breast cancer xenografts. Tumors were implanted as described in Materials and Methods. […] Tumor volumes in each mouse were measured at the time of tumor implantation, again at day 15 after tumor implantation during survival laparotomy and again at day 30 after tumor implantation during necropsy. There was a minimum of 5 mice per group. (Figure 9a) MCF-7 tumors. […] See legend to Figures 9a and 9b for experimental protocol. […] See legend to Figures 9a and 9b for experimental protocol. […] Rabbit uterine cytosol was used as a source of estrogen receptor. All incubations were performed in triplicate, each containing 100 µl of cytosol, 20 µl of 10 nM 6,7-^3H estradiol (50 Ci/mmol), and 80 µl of test agent at the final concentrations indicated on the abscissa. […]

SMILES: CC/C(=C(\c1ccccc1)c1ccc(OCCN(C)C)cc1)c1ccccc1 [tamoxifen]
growth of ER+ T47D human breast cancer xenografts [1]: prevented growth | MCF-7 breast cancer xenograft growth [2]: stop MCF-7 breast cancer xenograft growth | growth of ER- MDA-MB-231 human breast cancer xenografts [3]: Neither peptide nor tamoxifen were effective; also recorded: did not affect the growth | growth of tamoxifen-resistant MCF-7 subline xenografts (tumor volume vs E2 alone) [4]: resistant to tamoxifen in vivo; also recorded: only minimally effective | estrogen-dependent growth of MCF-7 human breast cancer xenografts (tumor volume vs E2 alone) ([5]; tamoxifen 50 µg per mouse i.p. once a day): prevented growth; also recorded: no increase in tumor volume | estrogen-dependent growth of MCF-7 human breast cancer xenografts (tumor volume vs E2 alone) ([5]; tamoxifen 50 µg per mouse i.p. once a day, listed as Tamoxifen): significantly different

SMILES: O=C(c1ccc(OCCN2CCCCC2)cc1)c1c(-c2ccc(O)cc2)sc2cc(O)ccc12 [raloxifene]
inhibition of estradiol binding to its receptor (estrogen receptor): completely inhibited

biological half-life [6]: two to three
SMILES: CSCC[C@H](NC(=O)[C@@H](N)CCC(=O)O)C(=O)N[C@H](C(=O)N1C[C@H](O)C[C@H]1C(=O)N[C@H](C(=O)N[C@@H](CC(N)=O)C(=O)N1C[C@H](O)C[C@H]1C(=O)NCC(N)=O)C(C)C)[C@@H](C)O [SEQ ID NO:4: EMTOVNOG, EMTOVNOG] (H-EMT[Hyp]VN[Hyp]G-NH2)

SMILES: CSCC[C@@H]1NC(=O)[C@H](CCC(=O)O)NC(=O)[C@H](CCC(N)=O)NC(=O)CNC(=O)[C@@H]2C[C@@H](O)CN2C(=O)[C@H](CC(N)=O)NC(=O)[C@H](C(C)C)NC(=O)[C@@H]2C[C@@H](O)CN2C(=O)[C@H]([C@@H](C)O)NC1=O [Cyclo-(SEQ ID NO:5: EMTOVNOGQ), Cyclo-(EMTOVNOGQ)] (cyclo(EMT[Hyp]VN[Hyp]GQ))
anti-estrotrophic activity ([7]; at doses higher than 10 µg/mouse): retained significant anti-estrotrophic activity | dose of maximal inhibitory activity on estrogen-stimulated growth of immature mouse uterus [7]: 10 µg per mouse | shelf-life [8]: Indefinite shelflife; also recorded: indefinite shelf-life | estrogen-dependent growth of MCF-7 human breast cancer xenografts (tumor volume vs E2 alone) ([5]; peptide 1 µg per mouse i.p. twice a day, SCID mice): significantly inhibited

biological activity after treatment with 4 M urea ([8]; stored/aged peptide, brief treatment with 4 M urea): restored the optimal biological activity
SMILES: CSCC[C@@H]1NC(=O)[C@H](CCC(=O)O)NC(=O)[C@H](CCC(N)=O)NC(=O)CNC(=O)[C@@H]2CCCN2C(=O)[C@H](CC(N)=O)NC(=O)[C@H](C(C)C)NC(=O)[C@@H]2CCCN2C(=O)[C@H]([C@@H](C)O)NC1=O (cyclo(EMTPVNPGQ))
inhibition of estrogen-stimulated growth of immature mouse uterus ([7]; at the optimal dose of the linear peptides (1 µg)): very active | dose of maximal inhibitory activity on estrogen-stimulated growth of immature mouse uterus [7]: 10 µg per mouse | biological activity after prolonged storage ([8]; after storage of six months): significant, albeit not optimal, biological activity | shelf-life [8]: somewhat extended but still rather limited shelf-life
